Results as given in PubChem BioAssay (NCI).
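All cell lines were grown in 96-well plates and treated with compound for 48 hours. GI50 is the concentration that inhibits growth by half. TGI is the concentration that stops growth completely.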

Experiments:
Assay in all cases: NCI tumour cell line growth inhibition, 48 h
HOP-62 NSCLC = system: HOP-62 NSCLC
HL-60(TB) leukemia = system: HL-60(TB) leukemia
K-562 leukemia = system: K-562 leukemia
MDA-MB-468 breast = system: MDA-MB-468 breast
NCI-H226 lung = system: NCI-H226 lung
SK-MEL-2 melanoma = system: SK-MEL-2 melanoma
OVCAR-3 ovarian = system: OVCAR-3 ovarian
HCC-2998 colon = system: HCC-2998 colon
HCT-116 colon = system: HCT-116 colon
MOLT-4 leukemia = system: MOLT-4 leukemia
DU-145 prostate = system: DU-145 prostate
786-0 renal = system: 786-0 renal
ACHN renal = system: ACHN renal
MCF7 breast = system: MCF7 breast
M14 melanoma = system: M14 melanoma
SK-OV-3 ovarian = system: SK-OV-3 ovarian
CCRF-CEM leukemia = system: CCRF-CEM leukemia
MALME-3M melanoma = system: MALME-3M melanoma
NCI-H460 lung = system: NCI-H460 lung
IGROV1 ovarian = system: IGROV1 ovarian
TK-10 renal = system: TK-10 renal
HS 578T breast = system: HS 578T breast
BT-549 breast = system: BT-549 breast
A549 NSCLC = system: A549 NSCLC
HOP-92 NSCLC = system: HOP-92 NSCLC
SF-539 CNS = system: SF-539 CNS
KM12 colon = system: KM12 colon
SN12C renal = system: SN12C renal
SK-MEL-5 melanoma = system: SK-MEL-5 melanoma
UACC-62 melanoma = system: UACC-62 melanoma
HT29 colon = system: HT29 colon
LOX IMVI melanoma = system: LOX IMVI melanoma
EKVX NSCLC = system: EKVX NSCLC
OVCAR-8 ovarian = system: OVCAR-8 ovarian
SF-268 CNS = system: SF-268 CNS
RXF 393 renal = system: RXF 393 renal
NCI/ADR-RES ovarian = system: NCI/ADR-RES ovarian
NCI-H23 lung = system: NCI-H23 lung
SK-MEL-28 melanoma = system: SK-MEL-28 melanoma
MDA-MB-435 = system: MDA-MB-435
UO-31 renal = system: UO-31 renal
SR leukemia = system: SR leukemia
MDA-MB-231 breast = system: MDA-MB-231 breast
SNB-19 CNS = system: SNB-19 CNS
OVCAR-5 ovarian = system: OVCAR-5 ovarian
T-47D breast = system: T-47D breast
PC-3 prostate = system: PC-3 prostate
COLO 205 colon = system: COLO 205 colon
OVCAR-4 ovarian = system: OVCAR-4 ovarian
RPMI-8226 leukemia = system: RPMI-8226 leukemia
HCT-15 colon = system: HCT-15 colon
NCI-H522 lung = system: NCI-H522 lung
CAKI-1 renal = system: CAKI-1 renal
UACC-257 melanoma = system: UACC-257 melanoma
A498 renal = system: A498 renal
SF-295 CNS = system: SF-295 CNS
U251 CNS = system: U251 CNS
SW-620 colon = system: SW-620 colon
SNB-75 CNS = system: SNB-75 CNS

## CC1(C)CC[C@]2(C(=O)O)CC[C@]3(C)C(=CCC4[C@@]5(C)C[C@@H](O)[C@@H]6OC(c7ccco7)OC[C@@]6(C)C5CC[C@]43C)C2C1 (stereo partly drawn)
HOP-62 NSCLC
  GI50: 7.06 µM
  TGI: 28.7 µM
HL-60(TB) leukemia
  GI50: 9.31 µM
  TGI: 43.4 µM
K-562 leukemia
  GI50: 4.81 µM
  TGI: > 100 µM
MDA-MB-468 breast
  GI50: 0.11 µM
  TGI: 6.03 µM
NCI-H226 lung
  GI50: 11.7 µM
  TGI: 36.1 µM
SK-MEL-2 melanoma
  GI50: 0.417 µM
  TGI: 13.7 µM
OVCAR-3 ovarian
  GI50: 9.25 µM
  TGI: 23 µM
HCC-2998 colon
  GI50: 6.35 µM
  TGI: 20.4 µM
HCT-116 colon
  GI50: 5.01 µM
  TGI: 18.4 µM
MOLT-4 leukemia
  GI50: 4.75 µM
  TGI: 33.7 µM
DU-145 prostate
  GI50: 11.6 µM
  TGI: 85 µM
786-0 renal
  GI50: 18.9 µM
  TGI: 64.7 µM
ACHN renal
  GI50: 0.111 µM
  TGI: 14.5 µM
MCF7 breast
  GI50: 8.83 µM
  TGI: 36.4 µM
M14 melanoma
  GI50: 0.416 µM
  TGI: 16.8 µM
SK-OV-3 ovarian
  GI50: 27.1 µM
  TGI: > 100 µM
CCRF-CEM leukemia
  GI50: 5.21 µM
  TGI: 30.3 µM
MALME-3M melanoma
  GI50: 0.191 µM
  TGI: 0.894 µM
NCI-H460 lung
  GI50: 6.45 µM
  TGI: 19.9 µM
IGROV1 ovarian
  GI50: 11.7 µM
  TGI: 28 µM
TK-10 renal
  GI50: 16.4 µM
  TGI: 68.9 µM
HS 578T breast
  GI50: 11.1 µM
  TGI: 45.2 µM
BT-549 breast
  GI50: 6.78 µM
  TGI: 21.4 µM
A549 NSCLC
  GI50: 3.2 µM
  TGI: 20.2 µM
HOP-92 NSCLC
  GI50: 5.97 µM
  TGI: 22.7 µM
SF-539 CNS
  GI50: 13.3 µM
  TGI: 26.4 µM
KM12 colon
  GI50: 5.84 µM
  TGI: 23.4 µM
SN12C renal
  GI50: 11.8 µM
  TGI: 26.2 µM
SK-MEL-5 melanoma
  GI50: 0.304 µM
  TGI: 1.2 µM
UACC-62 melanoma
  GI50: 0.312 µM
  TGI: 12.5 µM
HT29 colon
  GI50: 12.8 µM
  TGI: 41.5 µM
LOX IMVI melanoma
  GI50: 5.69 µM
  TGI: 19.1 µM
EKVX NSCLC
  GI50: 5.05 µM
  TGI: 21.9 µM
OVCAR-8 ovarian
  GI50: 10.3 µM
  TGI: 61.5 µM
SF-268 CNS
  GI50: 10.7 µM
  TGI: 31.8 µM
RXF 393 renal
  GI50: 13 µM
  TGI: 26.5 µM
NCI/ADR-RES ovarian
  GI50: 6.62 µM
  TGI: 32.3 µM
NCI-H23 lung
  GI50: 9.31 µM
  TGI: 23.2 µM
SK-MEL-28 melanoma
  GI50: 0.22 µM
  TGI: 15.7 µM
MDA-MB-435
  GI50: 0.475 µM
  TGI: 15.4 µM
UO-31 renal
  GI50: 6.95 µM
  TGI: 21.1 µM
SR leukemia
  GI50: 9.92 µM
  TGI: 51.4 µM
MDA-MB-231 breast
  GI50: 16.2 µM
  TGI: 32.3 µM
SNB-19 CNS
  GI50: 3.97 µM
  TGI: 21.8 µM
OVCAR-5 ovarian
  GI50: 16.4 µM
  TGI: 30.6 µM
T-47D breast
  GI50: 15.6 µM
  TGI: > 100 µM
PC-3 prostate
  GI50: 9.27 µM
  TGI: > 100 µM
COLO 205 colon
  GI50: 0.11 µM
  TGI: 0.263 µM
OVCAR-4 ovarian
  GI50: 16.6 µM
  TGI: 63.4 µM
RPMI-8226 leukemia
  GI50: 5.62 µM
  TGI: 71.2 µM
HCT-15 colon
  GI50: 3.32 µM
  TGI: 15.8 µM
NCI-H522 lung
  GI50: 10.6 µM
  TGI: 28.1 µM
CAKI-1 renal
  GI50: 21.3 µM
  TGI: 83.3 µM
UACC-257 melanoma
  GI50: 0.208 µM
  TGI: 0.913 µM
A498 renal
  GI50: 14.1 µM
  TGI: 30.8 µM
SF-295 CNS
  GI50: 5.3 µM
  TGI: 19.1 µM
U251 CNS
  GI50: 1.47 µM
  TGI: 16.9 µM
SW-620 colon
  GI50: 11.2 µM
  TGI: 25.4 µM
SNB-75 CNS
  GI50: 6.35 µM
  TGI: 30.2 µM
